What all share (assay): NCI anticancer screen, dose series, 48 h
The test system of assay [1] is RPMI-8226 leukemia.
The subject of assay [2] is NCI/ADR-RES ovarian.
Assay [3] deals with SNB-75 CNS.
Assay [4] concerns SW-620 colon.
Assay [5] has as its system CCRF-CEM leukemia.
For assay [6], the system named is SF-268 CNS.
Assay [7] has as its system NCI-H522 lung.
The test system of assay [8] is ACHN renal.
Assay [9] deals with HS 578T breast.
The test system of assay [10] is HCT-15 colon.

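Grown in 96-well plates, cells were treated for 48 hours with each compound at five concentrations. Insufficient inhibition: endpoint recorded as highest concentration tested. The concentration for 50% growth inhibition is given as GI50. The concentration for full growth arrest is given as TGI.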

As for `C(/C=C(\Nc1ccccc1)c1ccc2ccccc2c1)=Nc1ccccc1`, the TGI is 5.67 µM in assay [1]; 3.93 µM in assay [2]; 8.39 µM in assay [3]; 17.3 µM in assay [4]; 2.85 µM in assay [5]; 29.5 µM in [6]. Moreover, the TGI in [7] is 19 µM; in [8], 11.5 µM; in assay [9] it was 13.7 µM; in [10], 5.61 µM.

`CC(C)C1OC(=O)C(Cc2ccccc2)N(C)C(=O)C(C(C)C)OC(=O)C(Cc2ccccc2)N(C)C(=O)C(C(C)C)OC(=O)C(Cc2ccccc2)N(C)C1=O` (stereo not given): the TGI worked out at 1.31 µM in assay [1]; 2.36 µM in assay [2]; 2.99 µM in assay [3]; 2.54 µM in assay [4]; 1.59 µM in assay [5]; 3.2 µM in assay [6]. Also, the TGI turned out to be 2.12 µM in assay [7], 1.64 µM in [8], 4.9 µM in [9] and 2.61 µM in assay [10].

In the case of `Cc1ccc2c(c1)CC1(Cc3cc(C)ccc3C1=O)C2=O`, the TGI in assay [1], in assay [2], in assay [3], in assay [4], in assay [5] and in assay [6] was over 100 µM throughout. Moreover, the TGI in [7], in assay [8], in assay [9] and in [10] was over 100 µM throughout.

`CCOC(=O)c1cccc(N=NNc2cccc(C(=O)OCC)c2)c1`: the TGI in assay [1] is over 100 µM; in [2] it was over 100 µM; in assay [3], 36.9 µM; in assay [4], over 100 µM; in assay [5], over 100 µM; in [6], 80.8 µM. In addition, the TGI in assay [7] was 84.3 µM; in assay [8], over 100 µM; in assay [9], 77.3 µM; in assay [10] it was over 100 µM.

`O=C1c2ccccc2CC12Cc1ccc3c(c1C2=O)CCCC3` (stereo not given): the TGI in assay [1] was over 100 µM; in assay [2], over 100 µM; in assay [3] it was 70.5 µM; in assay [4] it was over 100 µM; in [5], over 100 µM; in [6], over 100 µM. Further, the TGI in [7] is over 100 µM; in [8] it was over 100 µM; in assay [9] it was 48.3 µM; in assay [10], over 100 µM.

With `CC(=O)N(C(=O)CC(=O)N1N=C(C)C(N=Nc2cccc([N+](=O)[O-])c2)C1=O)c1ccc(Cl)cc1` (stereo not given), the TGI in assay [1], in assay [2], in assay [3], in assay [4], in assay [5] and in assay [6] was over 10 µM in each case. For the same compound, the TGI in assay [7], in [8], in assay [9] and in [10] was over 10 µM in each case.

Take `O=C(c1ccccc1)c1nn(-c2cccc(Cl)c2)c2nc3nc(-c4ccccc4)cc(=O)n3nc12`: the GI50 in assay [1], in [2], in assay [3], in [4], in assay [5] and in [6] was over 25 µM each time. Further, the GI50 in [7], in assay [8], in assay [9] and in [10] was over 25 µM throughout. The TGI in assay [1], in assay [2], in assay [3], in [4], in assay [5] and in [6] was over 25 µM in each case. The TGI in [7], in [8], in assay [9] and in [10] was over 25 µM in each case.

For `Cc1cccc(NC(=S)NNC(=O)c2cc(-c3ccccc3)nc3ccccc23)c1`, the TGI in [1] is 83.6 µM; in assay [2], over 100 µM; in [3], over 100 µM; in assay [4] it was over 100 µM; in assay [5] it was 35.4 µM; in [6] it was over 100 µM. Besides, the TGI in assay [7] is 85.8 µM; in assay [8] it was over 100 µM; in assay [9], over 100 µM; in [10] it was over 100 µM.

Consider `CCC(CCCC[C@H]1CC[C@@H]2CC(=O)C[C@H]12)OC` (stereo not given in full), for which the TGI in assay [1], in [2], in [3], in [4], in [5] and in assay [6] was over 100 µM in each case. Besides, the TGI in assay [7], in [8], in [9] and in [10] was over 100 µM in each case.

In the case of `O=c1[nH]nc(-c2cccc([N+](=O)[O-])c2)[nH]1`, the TGI in assay [1], in [2], in [3], in assay [4], in assay [5] and in assay [6] was over 100 µM in each case. Also, the TGI in assay [7], in [8], in assay [9] and in [10] was over 100 µM each time.

For the compound `C1CCC(CC2CCC(NC3=NCCO3)CC2)CC1` (stereo not given), the TGI was 55.9 µM in [1]; 37.3 µM in assay [2]; 36.6 µM in assay [3]; 41.7 µM in assay [4]; 61.9 µM in assay [5]; 62.1 µM in [6]. The TGI in assay [7] is 41.9 µM; in assay [8], 35.5 µM; in assay [9], 40.6 µM; in assay [10] it was 30.1 µM.

As to `O=C(OC[C@H]1C[C@H]2C(=O)OCCC[C@H]2O1)c1ccccc1`, the TGI in assay [1], in assay [2], in [3], in [4], in [5] and in [6] was over 100 µM throughout. Also, the TGI in assay [7], in assay [8], in assay [9] and in [10] was over 100 µM in each case.

For `Clc1ccc(Cc2nc3cc4ccccc4cc3[nH]2)cc1Cl`, the TGI in [1] was over 100 µM; in assay [2], 96.4 µM; in assay [3], 44.5 µM; in assay [4] it was 41.3 µM; in assay [5], over 100 µM; in assay [6], 62.7 µM. The TGI is 29 µM in [7], 81.2 µM in assay [8], 64.5 µM in assay [9] and over 100 µM in assay [10].

As to `Cc1n[nH]c(=O)c2c3c([nH]c12)-c1ccccc1C3`, the TGI in [1] is over 100 µM; in assay [2], over 100 µM; in assay [3] it was 66.6 µM; in [4], over 100 µM; in assay [5] it was over 100 µM; in assay [6], over 100 µM. Moreover, the TGI in [7], in assay [8], in assay [9] and in assay [10] was over 100 µM in each case.

In the case of `CCc1nnc2sc(-c3ccc(-c4ccccc4[N+](=O)[O-])o3)nn12`, the TGI is over 100 µM in assay [1]; 75.1 µM in [2]; over 100 µM in assay [3]; over 100 µM in assay [4]; over 100 µM in [5]; over 100 µM in assay [6]. Further, the TGI in [7], in [8], in assay [9] and in assay [10] was over 100 µM throughout.

For the compound `Cc1[nH]c2c(C)c3c([nH]c4ccc(Cl)cc43)c(C)c2c(=O)c1C`, the TGI in [1] was 24.9 µM; in [2], 60.5 µM; in assay [3] it was over 92.5 µM; in [4], over 100 µM; in [5], 18.1 µM; in assay [6], over 100 µM. Further, the TGI in assay [7] was 12.9 µM; in assay [8], 11.6 µM; in [9], over 100 µM; in assay [10], 5.72 µM.

Take `c1cc(CSP234N5CCN2CCN3CCN4CC5)cc(CSP234N5CCN2CCN3CCN4CC5)c1`: the TGI is over 100 µM in assay [1]; over 100 µM in assay [2]; 76.4 µM in assay [3]; over 100 µM in assay [4]; 62.3 µM in [5]; over 100 µM in assay [6]. For the same compound, the TGI in assay [7] was 43.1 µM; in [8], over 100 µM; in assay [9], 69.3 µM; in assay [10], 70.8 µM.

Regarding `CCOc1c2c(cc3c1C(=O)c1c(OC)cccc1C3=O)C=C(OC)CC2`, the TGI in assay [1], in assay [2], in assay [3], in assay [4], in assay [5] and in [6] was over 25 µM in each case. In addition, the TGI in assay [7], in [8], in [9] and in [10] was over 25 µM throughout.

Consider `CN1N=C(c2ccncc2)OC1c1ccc(C(F)(F)F)cc1` (stereo not given), for which the TGI is over 100 µM in [1]; over 100 µM in [2]; 87.8 µM in assay [3]; over 100 µM in assay [4]; over 100 µM in [5]; over 100 µM in assay [6]. Further, the TGI in [7], in assay [8], in assay [9] and in [10] was over 100 µM each time.

For the compound `CCCCCCCC(=O)NC(C)(C)C(=O)NCC(=O)NC(CC(C)C)C(=O)NC(C)(C)C(=O)NCC(=O)NCC(=O)NC(CC(C)C)C(=O)NC(C)(C)C(=O)NCC(=O)NC(C(=O)NC(CO)CC(C)C)C(C)CC` (stereo not given), the TGI in assay [1] was determined as 4.27 µM; in [2] it was 9.12 µM; in assay [3], 7.28 µM; in assay [4], 9.28 µM; in assay [5] it was 11.7 µM; in assay [6], 7.5 µM. Besides, the TGI was 7.26 µM in assay [7], 8.75 µM in [8], 8.81 µM in [9] and 10.3 µM in assay [10].

`COc1ccc(/C=N/n2c(-c3ccccc3)n[nH]c2=O)c(OC)c1`: the TGI in assay [1] is over 100 µM; in assay [2], over 73.9 µM; in assay [3] it was over 73.2 µM; in [4] it was over 100 µM; in assay [5] it was over 100 µM; in [6], 71.9 µM. Besides, the TGI is over 74.3 µM in assay [7], over 75.5 µM in assay [8], 80 µM in [9] and over 100 µM in assay [10].

Source of the values: PubChem BioAssay (NCI).
